In the test the target is BTK^C481S (Homo sapiens (Human), UniProt Q06187, C481S). Put plainly: BTK enzyme activity assay (33P-ATP filter-binding). The test is classed as biochemical. The following applies: 200 μM ATP; 20 min pre-incubation, 2 h reaction at room temperature; radiometric filter-binding. On the procedure:
Assay Example 1: BTK Enzyme Activity Assay
The specific assay process of BTK enzyme activity assay is as follows: Buffer solution: 20 mM hydroxyethyl piperazine ethanesulfonic acid (Hepes) (pH 7.5), 10 mM magnesium chloride, 1 mM ethylenebis(oxyethylenenitrilo)tetraacetic acid (EGTA), 0.02% polyoxyethylene dodecyl ether (Brij35), 0.02 mg/mL BSA, 0.1 mM sodium vanadate (Na3VO4), 2 mM dithiothreitol (DTT), 1% DMSO, 200 μM adenosine triphosphate (ATP). • 1. The substrate was prepared in freshly prepared reaction buffer; • 2. The required cofactor was added to the above-mentioned substrate solution; • 3. The kinase BTK^C481S sis was added to the above-mentioned substrate solution and mix well; • 4. The compound dissolved in DMSO was added to the kinase reaction mixture through Echo550 (Acoustic technology; nanolite range), and the mixture was incubated at room temperature for 20 minutes; • 5. ^33P-ATP (specific activity of radioactivity is 10 μCi/μL) was added to the reaction mixture to initiate the reaction; • 6. The mixture was incubated at room temperature for 2 hours; • 7. The radioactivity was detected by filter-binding method; • 8. Kinase activity data represented the percentage of remaining kinase activity in the assay sample compared to the vehicle (dimethyl sulfoxide) reaction.

BTK^C481S, sequence (Q06187 whole entry C481S): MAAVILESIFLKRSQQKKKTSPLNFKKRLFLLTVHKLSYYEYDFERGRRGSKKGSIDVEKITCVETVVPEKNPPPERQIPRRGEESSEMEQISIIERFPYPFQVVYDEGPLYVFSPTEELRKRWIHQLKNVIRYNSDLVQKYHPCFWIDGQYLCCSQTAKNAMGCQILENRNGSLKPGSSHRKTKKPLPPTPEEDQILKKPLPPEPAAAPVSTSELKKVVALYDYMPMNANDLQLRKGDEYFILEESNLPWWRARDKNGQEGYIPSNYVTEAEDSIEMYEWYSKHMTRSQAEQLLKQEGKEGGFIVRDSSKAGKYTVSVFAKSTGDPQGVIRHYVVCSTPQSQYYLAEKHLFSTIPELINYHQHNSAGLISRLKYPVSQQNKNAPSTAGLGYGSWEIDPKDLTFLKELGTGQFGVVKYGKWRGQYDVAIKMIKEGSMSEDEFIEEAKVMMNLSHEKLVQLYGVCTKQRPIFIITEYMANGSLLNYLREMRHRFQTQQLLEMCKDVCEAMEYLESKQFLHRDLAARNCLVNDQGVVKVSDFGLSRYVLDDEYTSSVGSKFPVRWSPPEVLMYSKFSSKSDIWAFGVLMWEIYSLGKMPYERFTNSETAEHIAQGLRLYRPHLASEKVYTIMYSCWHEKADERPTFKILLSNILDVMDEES

With `N#Cc1cnc2[nH]cc(C(=O)c3ccc(Oc4ccccc4F)cc3Cl)c2c1N[C@@H]1CC[C@@H](CO)OC1` [Compound 2], the IC50 (as a rule, the midpoint of a concentration-inhibition curve) is 11.7 nM.
Consider `N#Cc1cnc2[nH]cc(C(=O)c3ccc(Oc4cccc(F)c4)cc3Cl)c2c1N[C@@H]1CC[C@@H](CO)OC1` [Compound 1], for which the IC50 is 58.9 nM.
On to `O=C(c1ccc(Oc2ccccc2)cc1Cl)c1c[nH]c2ncc(F)c(N[C@@H]3CC[C@@H](CO)OC3)c12` [Compound 5], for which the IC50 came to 8.9 nM.
In the case of `CO[C@@H]1C[C@@H](CO)OC[C@@H]1Nc1c(C#N)cnc2[nH]cc(C(=O)c3ccc(Oc4ccccc4)cc3Cl)c12` [Compound 3], the IC50 worked out at 74.2 nM.
Take `N#Cc1cnc2[nH]cc(C(=O)c3ccc(Oc4ccccc4)cc3Cl)c2c1N[C@@H]1CC[C@@H](CO)OC1` [Compound 4]: the IC50 turned out to be 7.4 nM. This IC50 lies about 10-fold lower than the previous one.

For the origin of these results see patent US20240002377A1, “PYRROLOPYRIDINE COMPOUND AND APPLICATION THEREOF” (MEDSHINE DISCOVERY INC., priority 2020, published 2024).
